From PubChem BioAssay AID328 (DTP/NCI, 2004)
Where “and” joins values, the source holds several entries; their conditions need not be identical. Equal entries are not always repeated. Toxic doses and inconclusive results are not listed.

Test system: BDF1 mice, P388 leukemia ip, median survival T/C
Test: NCI In Vivo Anticancer Drug Screen. Data for tumor model P388 Leukemia (intraperitoneal) in B6D2F1 (BDF1) mice
Details: endpoint: median survival time, higher = longer survival
In short: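 Compound-treated tumour-bearing mice were compared with vehicle-treated controls. Survival was recorded, and the value is the treated-group measurement divided by the control-group measurement (T/C).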

[1] = dose: 25.0 mg/kg/injection, schedule: Q01DX009 (ip), vehicle: saline
[2] = dose: 100.0 mg/kg/injection, schedule: Q01DX009 (ip), vehicle: Klucel (hydroxypropylcellulose) (HPC)
[3] = dose: 200.0 mg/kg/injection, schedule: Q01DX009 (ip), vehicle: Klucel (hydroxypropylcellulose) (HPC)

## Cc1nnc(NC(=O)CCl)s1
[1]
  T/C: 95 % of control and 100 % of control and 113 % of control
dose: 35.0 mg/kg/injection, schedule: Q01DX009 (ip), vehicle: saline
  T/C: 113 % of control
dose: 50.0 mg/kg/injection, schedule: Q01DX009 (ip), vehicle: saline
  T/C: 100 % of control
[2]
  T/C: 106 % of control
dose: 100.0 mg/kg/injection, schedule: Q01DX009 (ip), vehicle: saline
  T/C: 100 % of control and 105 % of control
[3]
  T/C: 111 % of control

## O=C1C(Cl)=C(N2CC2)C(=O)C(Cl)=C1N1CC1
dose: 1.25 mg/kg/injection, schedule: Q01DX009 (ip), vehicle: saline with Tween-80
  T/C: 172 % of control
dose: 2.5 mg/kg/injection, schedule: Q01DX009 (ip), vehicle: Klucel (hydroxypropylcellulose) (HPC)
  T/C: 150 % of control
dose: 2.5 mg/kg/injection, schedule: Q01DX009 (ip), vehicle: saline with Tween-80
  T/C: 169 % of control
dose: 5.0 mg/kg/injection, schedule: Q01DX009 (ip), vehicle: Klucel (hydroxypropylcellulose) (HPC)
  T/C: 157 % of control and 165 % of control
dose: 5.0 mg/kg/injection, schedule: Q01DX009 (ip), vehicle: saline with Tween-80
  T/C: 172 % of control
dose: 5.0 mg/kg/injection, schedule: Q01DX009 (ip), vehicle: saline
  T/C: 155 % of control and 165 % of control
dose: 10.0 mg/kg/injection, schedule: Q01DX009 (ip), vehicle: Klucel (hydroxypropylcellulose) (HPC)
  T/C: 123 % of control
dose: 10.0 mg/kg/injection, schedule: Q01DX009 (ip), vehicle: saline with Tween-80
  T/C: 169 % of control
dose: 10.0 mg/kg/injection, schedule: Q01DX009 (ip), vehicle: saline
  T/C: 163 % of control and 200 % of control

## CC(=O)O.CC(=O)O.[NH-]C(CCC(N)=O)C(=O)O.[NH-]C(CCC(N)=O)C(=O)O.[Ni+2] (configuration not stated)
dose: 12.5 mg/kg/injection, schedule: Q01DX009 (ip), vehicle: saline
  T/C: 104 % of control
[1]
  T/C: 93 % of control

## Nc1cc(=O)n(Cc2ccco2)c(=S)[nH]1
dose: 50.0 mg/kg/injection, schedule: Q01DX005 (ip), vehicle: saline with Tween-80
  T/C: 93 % of control
dose: 100.0 mg/kg/injection, schedule: Q01DX005 (ip), vehicle: saline with Tween-80
  T/C: 102 % of control
dose: 200.0 mg/kg/injection, schedule: Q01DX005 (ip), vehicle: saline with Tween-80
  T/C: 100 % of control

## O=C(COc1cccc(Cl)c1Cl)Nc1cccnc1
dose: 37.5 mg/kg/injection, schedule: Q01DX001 (ip), vehicle: saline with Tween-80
  T/C: 100 % of control
dose: 75.0 mg/kg/injection, schedule: Q01DX001 (ip), vehicle: saline with Tween-80
  T/C: 104 % of control
dose: 150.0 mg/kg/injection, schedule: Q01DX001 (ip), vehicle: saline with Tween-80
  T/C: 100 % of control

## Nc1ccc(O)cc1
dose: 264.0 mg/kg/injection, schedule: Q01DX009 (ip), vehicle: saline sonified
  T/C: 109 % of control
dose: 400.0 mg/kg/injection, schedule: Q01DX009 (ip), vehicle: saline sonified
  T/C: 90 % of control

## Cc1cc2c3ccccc3ccc2[n+]2ccccc12
dose: 4.1 mg/kg/injection, schedule: Q01DX009 (ip), vehicle: saline
  T/C: 120 % of control
dose: 9.37 mg/kg/injection, schedule: Q01DX009 (ip), vehicle: saline
  T/C: 161 % of control
dose: 18.75 mg/kg/injection, schedule: Q01DX009 (ip), vehicle: saline
  T/C: 171 % of control and 180 % of control
dose: 28.12 mg/kg/injection, schedule: Q01DX009 (ip), vehicle: saline
  T/C: 190 % of control
dose: 37.5 mg/kg/injection, schedule: Q04DX003 (ip), vehicle: alcohol
  T/C: 112 % of control

## C(=N\Nc1nc2ccccc2s1)/c1ccccc1
[2]
  T/C: 95 % of control
[3]
  T/C: 109 % of control
dose: 400.0 mg/kg/injection, schedule: Q01DX009 (ip), vehicle: Klucel (hydroxypropylcellulose) (HPC)
  T/C: 90 % of control

## CCOc1ccccc1NC(=O)c1ccc(Cl)cc1
dose: 100.0 mg/kg/injection, schedule: Q01DX001 (ip), vehicle: saline with Tween-80
  T/C: 90 % of control
dose: 200.0 mg/kg/injection, schedule: Q01DX001 (ip), vehicle: saline with Tween-80
  T/C: 90 % of control
dose: 400.0 mg/kg/injection, schedule: Q01DX001 (ip), vehicle: saline with Tween-80
  T/C: 95 % of control

## Cc1ccc(CNCC(=O)O)cc1
dose: 100.0 mg/kg/injection, schedule: Q04DX003 (ip), vehicle: water
  T/C: 99 % of control
dose: 200.0 mg/kg/injection, schedule: Q04DX003 (ip), vehicle: water
  T/C: 102 % of control
dose: 400.0 mg/kg/injection, schedule: Q04DX003 (ip), vehicle: water
  T/C: 90 % of control

## CC[C@@H](C(=O)[C@@H](C)[C@@H](O)[C@H](C)CCc1ccc(C)c(O)c1C(=O)O)[C@H]1O[C@](CC)([C@H]2CC[C@](O)(CC)[C@H](C)O2)C[C@@H]1C
dose: 3.12 mg/kg/injection, schedule: Q01DX009 (ip), vehicle: Klucel (hydroxypropylcellulose) (HPC)
  T/C: 108 % of control
dose: 6.25 mg/kg/injection, schedule: Q01DX009 (ip), vehicle: Klucel (hydroxypropylcellulose) (HPC)
  T/C: 110 % of control
dose: 12.5 mg/kg/injection, schedule: Q01DX009 (ip), vehicle: Klucel (hydroxypropylcellulose) (HPC)
  T/C: 118 % of control and 119 % of control
